Results from ChEMBL document CHEMBL5365426, “Modification of N-hydroxycytidine yields a novel lead compound exhibiting activity against the Venezuelan equine encephalitis virus” (Bioorg Med Chem Lett, 2023).

What was measured:
[1] = system: Venezuelan equine encephalitis virus; assay: Antiviral activity against Venezuelan equine encephalitis virus infected in human MRC5 cells assessed as inhibition of viral infection at 100 uM relative to control; assay type: functional
[2] = system: Venezuelan equine encephalitis virus; assay: Antiviral activity against Venezuelan equine encephalitis virus infected in human MRC5 cells assessed as virus induced cell death at 100 uM relative to control; assay type: functional
[3] = system: Venezuelan equine encephalitis virus; assay: Antiviral activity against Venezuelan equine encephalitis virus infected in human MRC5 cells assessed as inhibition of virus induced cytopathic effect; assay type: functional, organism-based
[4] = Cytotoxicity against human MRC-5 cells assessed as reduction in cell viability; assay type: toxicity, cell-based, MRC5
[5] = Safety index, ratio of CC50 for cytotoxicity against human MRC-5 cells to EC50 for antiviral activity against Venezuelan equine encephalitis virus infected in human MRC5 cells; assay type: toxicity, cell-based; conditions: read-out: Ratio CC50/EC50

Molecule O=c1[nH]cc(CO)c(=O)[nH]1 has an inhibition at 100 µM [1] of 16.8% and an Activity [2] of 7.97%.
With O=c1[nH]cc(COCc2ccccc2)c(=O)[nH]1 the inhibition at 100 µM [1] was 9.66% and the Activity [2] was 0.22%.
With O=c1[nH]c(=O)n([C@@H]2O[C@H](CO)[C@@H](O)[C@H]2O)cc1COCc1ccccc1Cl the inhibition at 100 µM [1] was 30.9% and the Activity [2] was 12.17%.
CC(C)(C)C(OCc1cn([C@@H]2O[C@H](CO)[C@@H](O)[C@H]2O)c(=O)[nH]/c1=N\O)c1ccccc1Cl (stereo partly specified) showed an inhibition at 100 µM [1] of 95.3%, an Activity [2] of 30.28% and an EC50 [3] of 37.6 µM. For the same molecule, the CC50 [4] was 135 µM and the selectivity ratio [5] was 3.59.
CC(C)C(OCc1cn([C@@H]2O[C@H](CO)[C@@H](O)[C@H]2O)c(=O)[nH]c1=O)c1ccccc1 (stereo partly specified) showed an inhibition at 100 µM [1] of 29% and an Activity [2] of 9.09%.
Cc1ccccc1C(OCc1cn([C@@H]2O[C@H](CO)[C@@H](O)[C@H]2O)c(=O)[nH]/c1=N\O)C(C)(C)C (stereo partly specified) gave an inhibition at 100 µM [1] of 24.4% and an Activity [2] of 18.59%.
In the case of CC(C)(C)C(OCc1cn([C@@H]2O[C@H](CO)[C@@H](O)[C@H]2O)c(=O)[nH]c1=O)c1ccccc1 (stereo partly specified), the inhibition at 100 µM [1] is reported as 16.6% and the Activity [2] is reported as 17.18%.
CCC(OCc1c[nH]c(=O)[nH]c1=O)c1ccccc1 (stereo unspecified) showed an inhibition at 100 µM [1] of 24.8% and an Activity [2] of 6.21%.
CC(C)(C)C(OCc1cn([C@@H]2O[C@H](CO)[C@@H](O)[C@H]2O)c(=O)[nH]c1=N)c1ccccc1Cl (stereo partly specified) gave an inhibition at 100 µM [1] of 29.3% and an Activity [2] of 18.8%.
Molecule CC(C)C(OCc1cn([C@@H]2O[C@H](CO)[C@@H](O)[C@H]2O)c(=O)[nH]c1=N)c1ccccc1 (stereo partly specified) has an inhibition at 100 µM [1] of 28.2% and an Activity [2] of 7.99%.
With N=c1[nH]c(=O)n([C@@H]2O[C@H](CO)[C@@H](O)[C@H]2O)cc1COC(c1ccccc1)C1CCCCC1 (stereo partly specified) the inhibition at 100 µM [1] was 24.9% and the Activity [2] was 17.83%.
With N=c1[nH]c(=O)n([C@@H]2O[C@H](CO)[C@@H](O)[C@H]2O)cc1COCc1ccccc1Cl the inhibition at 100 µM [1] was 29% and the Activity [2] was 10.11%.
CC(OCc1cn([C@@H]2O[C@H](CO)[C@@H](O)[C@H]2O)c(=O)[nH]/c1=N\O)c1ccccc1 (stereo partly specified) showed an inhibition at 100 µM [1] of 10.5% and an Activity [2] of 5.54%.
In the case of Cc1ccccc1C(OCc1cn([C@@H]2O[C@H](CO)[C@@H](O)[C@H]2O)c(=O)[nH]c1=O)C(C)(C)C (stereo partly specified), the inhibition at 100 µM [1] is reported as 34% and the Activity [2] is reported as 27.83%.
CC(OCc1cn([C@@H]2O[C@H](CO)[C@@H](O)[C@H]2O)c(=O)[nH]c1=N)c1ccccc1 (stereo partly specified) showed an inhibition at 100 µM [1] of 31% and an Activity [2] of 11.51%.
In the case of CC(C)C(OCc1c[nH]c(=O)[nH]c1=O)c1ccccc1 (stereo unspecified), the inhibition at 100 µM [1] is reported as 5.87% and the Activity [2] is reported as 7.76%.
In the case of CCC(OCc1cn([C@@H]2O[C@H](CO)[C@@H](O)[C@H]2O)c(=O)[nH]/c1=N\O)c1ccccc1 (stereo partly specified), the inhibition at 100 µM [1] is reported as 10.5% and the Activity [2] is reported as 4.87%.
With N=c1[nH]c(=O)n([C@@H]2O[C@H](CO)[C@@H](O)[C@H]2O)cc1COCc1ccccc1 the inhibition at 100 µM [1] was 24.9% and the Activity [2] was 18.86%.
In the case of CC(C)C(OCc1cn([C@@H]2O[C@H](CO)[C@@H](O)[C@H]2O)c(=O)[nH]/c1=N\O)c1ccccc1 (stereo partly specified), the inhibition at 100 µM [1] is reported as 16.5% and the Activity [2] is reported as 9.54%.
CC(C)(C)C(OCc1c[nH]c(=O)[nH]c1=O)c1ccccc1 (stereo unspecified) showed an inhibition at 100 µM [1] of 11.7% and an Activity [2] of 4.02%.
Work on O=c1[nH]/c(=N\O)c(COC(c2ccccc2)C2CCCCC2)cn1[C@@H]1O[C@H](CO)[C@@H](O)[C@H]1O (stereo partly specified) yielded an inhibition at 100 µM [1] of 35.5% and an Activity [2] of 25.09%.
Work on Cc1ccccc1C(OCc1c[nH]c(=O)[nH]c1=O)C(C)(C)C (stereo unspecified) yielded an inhibition at 100 µM [1] of 21.4% and an Activity [2] of 3.54%.
In the case of O=c1[nH]c(=O)n([C@@H]2O[C@H](CO)[C@@H](O)[C@H]2O)cc1COCc1ccccc1, the inhibition at 100 µM [1] is reported as 25.5% and the Activity [2] is reported as 22.88%.
With O=c1[nH]/c(=N\O)c(COCc2ccccc2)cn1[C@@H]1O[C@H](CO)[C@@H](O)[C@H]1O the inhibition at 100 µM [1] was 12.4% and the Activity [2] was 16.09%.
O=c1[nH]/c(=N\O)c(CO)cn1[C@@H]1O[C@H](CO)[C@@H](O)[C@H]1O showed an inhibition at 100 µM [1] of 5.24% and an Activity [2] of 4.99%.
Molecule O=c1[nH]cc(COC(c2ccccc2)C2CCCCC2)c(=O)[nH]1 (stereo unspecified) has an inhibition at 100 µM [1] of 10.5% and an Activity [2] of 8.05%.
For CC(C)(C)C(OCc1cn([C@@H]2O[C@H](CO)[C@@H](O)[C@H]2O)c(=O)[nH]/c1=N\O)c1ccccc1 (stereo partly specified), the inhibition at 100 µM [1] was 30.3% and the Activity [2] was 20.09%.
CCC(OCc1cn([C@H]2O[C@H](CO)[C@@H](O)[C@H]2O)c(=O)[nH]c1=O)c1ccccc1 (stereo partly specified) gave an inhibition at 100 µM [1] of 26.3% and an Activity [2] of 20.81%.
CC(C)(C)C(OCc1c[nH]c(=O)[nH]c1=O)c1ccccc1Cl (stereo unspecified) gave an inhibition at 100 µM [1] of 11.6% and an Activity [2] of 4.74%.
O=c1[nH]c(=O)n([C@H]2O[C@H](CO)[C@@H](O)[C@H]2O)cc1COCc1ccccc1 gave an inhibition at 100 µM [1] of 23% and an Activity [2] of 11.03%.
N=c1[nH]c(=O)n([C@@H]2O[C@H](CO)[C@@H](O)[C@H]2O)cc1CO showed an inhibition at 100 µM [1] of 12.2% and an Activity [2] of 29.79%.
Work on CC(OCc1c[nH]c(=O)[nH]c1=O)c1ccccc1 (stereo unspecified) yielded an inhibition at 100 µM [1] of 10.1% and an Activity [2] of 11.63%.
Molecule CC(OCc1cn([C@@H]2O[C@H](CO)[C@@H](O)[C@H]2O)c(=O)[nH]c1=O)c1ccccc1 (stereo partly specified) has an inhibition at 100 µM [1] of 16.8% and an Activity [2] of 5.05%.
Work on O=c1[nH]c(=O)n([C@H]2O[C@H](CO)[C@@H](O)[C@H]2O)cc1COCc1ccccc1Cl yielded an inhibition at 100 µM [1] of 18.8% and an Activity [2] of 12.73%.
For O=c1[nH]cc(COCc2ccccc2Cl)c(=O)[nH]1, the inhibition at 100 µM [1] was 12.9% and the Activity [2] was 9.35%.
CCC(OCc1cn([C@@H]2O[C@H](CO)[C@@H](O)[C@H]2O)c(=O)[nH]c1=N)c1ccccc1 (stereo partly specified) gave an inhibition at 100 µM [1] of 14.3% and an Activity [2] of 8.31%.
O=c1[nH]c(=O)n([C@@H]2O[C@H](CO)[C@@H](O)[C@H]2O)cc1CO gave an inhibition at 100 µM [1] of 17.4% and an Activity [2] of 11.71%.
In the case of Cc1ccccc1C(OCc1cn([C@@H]2O[C@H](CO)[C@@H](O)[C@H]2O)c(=O)[nH]c1=N)C(C)(C)C (stereo partly specified), the inhibition at 100 µM [1] is reported as 34.4% and the Activity [2] is reported as 22.95%.
In the case of O=c1[nH]/c(=N\O)c(COCc2ccccc2Cl)cn1[C@@H]1O[C@H](CO)[C@@H](O)[C@H]1O, the inhibition at 100 µM [1] is reported as 41.1% and the Activity [2] is reported as 6.38%.
CC(C)C(OCc1cn([C@H]2O[C@H](CO)[C@@H](O)[C@H]2O)c(=O)[nH]c1=O)c1ccccc1 (stereo partly specified) showed an inhibition at 100 µM [1] of 20.5% and an Activity [2] of 17.19%.
Work on CC(C)(C)C(OCc1cn([C@@H]2O[C@H](CO)[C@@H](O)[C@H]2O)c(=O)[nH]c1=N)c1ccccc1 (stereo partly specified) yielded an inhibition at 100 µM [1] of 13.1% and an Activity [2] of 10.91%.
For O=c1[nH]c(=O)n([C@@H]2O[C@H](CO)[C@@H](O)[C@H]2O)cc1COC(c1ccccc1)C1CCCCC1 (stereo partly specified), the inhibition at 100 µM [1] was 15.9% and the Activity [2] was 16.28%.
Molecule CC(C)(C)C(OCc1cn([C@@H]2O[C@H](CO)[C@@H](O)[C@H]2O)c(=O)[nH]c1=O)c1ccccc1Cl (stereo partly specified) has an inhibition at 100 µM [1] of 37.2% and an Activity [2] of 20.09%.
With CCC(OCc1cn([C@@H]2O[C@H](CO)[C@@H](O)[C@H]2O)c(=O)[nH]c1=O)c1ccccc1 (stereo partly specified) the inhibition at 100 µM [1] was 22.1% and the Activity [2] was 8.2%.
Work on CC(OCc1cn([C@H]2O[C@H](CO)[C@@H](O)[C@H]2O)c(=O)[nH]c1=O)c1ccccc1 (stereo partly specified) yielded an inhibition at 100 µM [1] of 30.6% and an Activity [2] of 25.09%.
In the case of O=c1nc(NO)ccn1[C@@H]1O[C@H](CO)[C@@H](O)[C@H]1O [N-HYDROXYCYTIDINE], the EC50 [3] is reported as 2.3 µM, the CC50 [4] is reported as 95.5 µM and the selectivity ratio [5] is reported as 41.5.
